Source: ChEMBL document CHEMBL1201862, “PubChem BioAssay data set” (2004)
One block for each compound: values may come before it. Active and inactive are the calls of the source.

What was measured:
[1] = target: Genome polyprotein (Hepatitis C virus, UniProt Q2Q167); experiment: HCV core protein dimerization inhibitors, dose response, biochemical, TR-FRET (AID 2159); parameters: species or system Hepacivirus hominis;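 further: blocks dimerization of HCV core protein measured by TR-FRET between tagged core106 pairs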
Sequence of Genome polyprotein (Q2Q167 whole entry): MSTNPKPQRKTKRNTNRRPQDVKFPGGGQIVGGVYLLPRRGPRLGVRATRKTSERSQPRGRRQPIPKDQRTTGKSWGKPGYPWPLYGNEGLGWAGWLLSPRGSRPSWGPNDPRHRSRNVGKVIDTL

[2] = target: T1, SUMO-activating enzyme (Homo sapiens, UniProt Q9UBT2); experiment: SUMOylation inhibitor hit validation, confirmation, SUMOylation inhibitor project, biochemical, AlphaScreen (AID 2018); format: functional
T1 sequence (Q9UBE0 whole entry): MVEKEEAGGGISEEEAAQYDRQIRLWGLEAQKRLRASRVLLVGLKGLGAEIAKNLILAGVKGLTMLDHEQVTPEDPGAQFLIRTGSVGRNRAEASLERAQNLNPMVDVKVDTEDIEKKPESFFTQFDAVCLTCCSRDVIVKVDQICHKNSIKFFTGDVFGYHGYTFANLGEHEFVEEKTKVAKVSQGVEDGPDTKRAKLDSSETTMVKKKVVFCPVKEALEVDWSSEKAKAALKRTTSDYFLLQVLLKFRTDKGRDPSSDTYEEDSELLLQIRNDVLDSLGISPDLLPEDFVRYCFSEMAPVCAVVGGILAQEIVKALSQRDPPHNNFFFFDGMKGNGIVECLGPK
T1 sequence (Q9UBT2 whole entry): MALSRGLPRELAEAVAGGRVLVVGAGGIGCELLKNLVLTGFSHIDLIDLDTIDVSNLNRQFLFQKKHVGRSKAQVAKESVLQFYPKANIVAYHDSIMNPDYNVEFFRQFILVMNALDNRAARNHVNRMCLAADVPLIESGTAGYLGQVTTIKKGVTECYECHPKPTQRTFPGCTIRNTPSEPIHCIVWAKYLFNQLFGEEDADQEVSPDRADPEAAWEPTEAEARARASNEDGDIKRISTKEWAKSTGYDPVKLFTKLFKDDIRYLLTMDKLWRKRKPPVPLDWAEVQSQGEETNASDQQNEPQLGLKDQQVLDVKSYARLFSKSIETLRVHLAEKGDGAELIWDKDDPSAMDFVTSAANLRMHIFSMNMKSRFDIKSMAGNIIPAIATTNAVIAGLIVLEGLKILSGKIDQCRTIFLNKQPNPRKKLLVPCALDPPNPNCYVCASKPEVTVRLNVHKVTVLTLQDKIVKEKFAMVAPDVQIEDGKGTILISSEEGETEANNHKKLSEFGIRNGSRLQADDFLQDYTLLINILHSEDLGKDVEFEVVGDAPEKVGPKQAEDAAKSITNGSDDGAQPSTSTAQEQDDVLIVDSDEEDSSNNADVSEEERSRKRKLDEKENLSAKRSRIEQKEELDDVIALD

[3] = target: T2, Voltage-gated N-type calcium channel alpha-1B subunit/Amyloid beta A4 precursor protein-binding family A member 1 (Homo sapiens, UniProt Q00975+Q02410); format: protein assay
T2 sequence (Q00975 whole entry): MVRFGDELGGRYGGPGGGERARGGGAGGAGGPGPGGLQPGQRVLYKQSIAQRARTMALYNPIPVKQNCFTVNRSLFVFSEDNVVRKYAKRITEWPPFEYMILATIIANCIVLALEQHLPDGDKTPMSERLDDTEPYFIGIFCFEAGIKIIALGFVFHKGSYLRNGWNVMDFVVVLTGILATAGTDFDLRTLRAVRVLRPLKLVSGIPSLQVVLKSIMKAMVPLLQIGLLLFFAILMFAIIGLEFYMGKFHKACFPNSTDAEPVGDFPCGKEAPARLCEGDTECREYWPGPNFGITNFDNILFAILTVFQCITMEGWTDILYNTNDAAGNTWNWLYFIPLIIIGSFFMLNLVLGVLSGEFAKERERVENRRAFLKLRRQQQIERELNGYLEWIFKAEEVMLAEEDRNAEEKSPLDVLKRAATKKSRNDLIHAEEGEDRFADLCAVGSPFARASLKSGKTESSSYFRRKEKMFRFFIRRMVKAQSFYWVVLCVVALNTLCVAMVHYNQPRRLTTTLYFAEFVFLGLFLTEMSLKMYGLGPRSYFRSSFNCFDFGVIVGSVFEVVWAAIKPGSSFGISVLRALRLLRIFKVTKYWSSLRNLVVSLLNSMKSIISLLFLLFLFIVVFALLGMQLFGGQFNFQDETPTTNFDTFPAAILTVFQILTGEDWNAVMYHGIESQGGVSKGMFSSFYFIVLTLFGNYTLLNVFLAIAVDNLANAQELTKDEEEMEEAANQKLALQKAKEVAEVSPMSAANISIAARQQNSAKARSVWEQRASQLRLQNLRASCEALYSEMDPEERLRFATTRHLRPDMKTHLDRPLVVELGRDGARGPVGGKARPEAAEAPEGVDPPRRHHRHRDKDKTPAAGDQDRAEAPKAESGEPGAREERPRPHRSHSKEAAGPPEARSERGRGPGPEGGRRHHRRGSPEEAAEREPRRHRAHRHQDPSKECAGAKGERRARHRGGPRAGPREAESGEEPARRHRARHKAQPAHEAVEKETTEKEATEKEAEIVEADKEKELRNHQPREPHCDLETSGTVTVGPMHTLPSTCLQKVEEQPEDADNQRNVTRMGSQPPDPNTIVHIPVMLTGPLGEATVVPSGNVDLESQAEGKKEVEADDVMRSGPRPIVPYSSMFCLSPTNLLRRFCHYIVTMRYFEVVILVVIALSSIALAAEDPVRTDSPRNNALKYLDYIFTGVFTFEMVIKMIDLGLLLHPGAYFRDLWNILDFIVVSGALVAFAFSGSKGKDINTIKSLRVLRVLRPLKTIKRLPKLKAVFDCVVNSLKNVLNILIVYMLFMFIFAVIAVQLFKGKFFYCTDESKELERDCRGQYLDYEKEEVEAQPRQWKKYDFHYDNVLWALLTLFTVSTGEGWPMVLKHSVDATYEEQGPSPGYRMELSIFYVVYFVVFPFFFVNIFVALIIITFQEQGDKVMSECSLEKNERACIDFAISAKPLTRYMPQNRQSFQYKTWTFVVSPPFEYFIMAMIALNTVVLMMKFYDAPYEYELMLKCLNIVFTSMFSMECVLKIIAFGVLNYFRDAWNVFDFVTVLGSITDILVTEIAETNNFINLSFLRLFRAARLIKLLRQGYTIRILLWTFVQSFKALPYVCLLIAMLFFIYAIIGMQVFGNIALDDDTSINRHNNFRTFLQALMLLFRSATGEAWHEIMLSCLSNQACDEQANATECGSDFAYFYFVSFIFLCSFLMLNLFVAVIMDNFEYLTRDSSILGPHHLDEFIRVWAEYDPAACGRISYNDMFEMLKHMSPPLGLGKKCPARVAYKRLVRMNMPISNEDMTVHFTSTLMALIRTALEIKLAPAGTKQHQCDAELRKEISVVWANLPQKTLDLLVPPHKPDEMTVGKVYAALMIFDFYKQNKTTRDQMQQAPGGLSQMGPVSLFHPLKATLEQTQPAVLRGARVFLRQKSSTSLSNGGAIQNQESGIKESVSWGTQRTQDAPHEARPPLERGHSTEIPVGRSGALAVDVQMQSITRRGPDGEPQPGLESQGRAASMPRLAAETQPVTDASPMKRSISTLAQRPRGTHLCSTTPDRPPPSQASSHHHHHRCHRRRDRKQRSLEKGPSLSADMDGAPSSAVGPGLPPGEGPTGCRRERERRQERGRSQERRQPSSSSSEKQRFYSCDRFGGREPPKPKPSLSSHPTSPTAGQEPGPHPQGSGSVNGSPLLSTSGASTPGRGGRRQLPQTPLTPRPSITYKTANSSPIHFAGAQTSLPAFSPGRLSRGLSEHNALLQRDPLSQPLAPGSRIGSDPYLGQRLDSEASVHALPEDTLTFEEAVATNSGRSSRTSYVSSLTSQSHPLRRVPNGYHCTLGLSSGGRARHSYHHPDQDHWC
T2 sequence (Q02410 whole entry): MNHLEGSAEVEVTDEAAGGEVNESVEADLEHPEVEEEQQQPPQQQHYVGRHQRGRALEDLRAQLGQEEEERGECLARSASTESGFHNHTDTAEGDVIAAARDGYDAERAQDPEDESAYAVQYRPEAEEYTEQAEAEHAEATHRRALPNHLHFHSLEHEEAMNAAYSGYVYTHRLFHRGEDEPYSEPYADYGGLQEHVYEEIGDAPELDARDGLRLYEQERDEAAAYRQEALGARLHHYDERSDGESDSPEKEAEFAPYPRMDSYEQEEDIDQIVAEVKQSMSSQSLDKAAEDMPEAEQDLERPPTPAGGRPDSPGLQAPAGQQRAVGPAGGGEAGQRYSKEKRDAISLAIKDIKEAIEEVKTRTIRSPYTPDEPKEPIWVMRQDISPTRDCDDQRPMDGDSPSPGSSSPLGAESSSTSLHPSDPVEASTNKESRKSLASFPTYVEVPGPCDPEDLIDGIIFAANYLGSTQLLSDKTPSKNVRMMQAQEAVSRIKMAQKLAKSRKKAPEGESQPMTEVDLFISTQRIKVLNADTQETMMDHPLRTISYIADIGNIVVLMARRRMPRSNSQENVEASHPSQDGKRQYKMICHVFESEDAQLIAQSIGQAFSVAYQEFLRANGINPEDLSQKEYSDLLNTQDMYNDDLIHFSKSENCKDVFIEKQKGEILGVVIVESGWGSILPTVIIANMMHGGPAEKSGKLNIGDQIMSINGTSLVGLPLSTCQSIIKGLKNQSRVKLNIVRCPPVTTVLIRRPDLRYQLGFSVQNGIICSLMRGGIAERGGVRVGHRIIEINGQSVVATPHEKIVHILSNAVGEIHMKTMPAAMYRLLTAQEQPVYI

[4] = target: T1, SUMO-activating enzyme; experiment: inhibitors of in vitro SUMOylation cascade, primary screen, biochemical, HTRF, uHTS (AID 2006); format: protein-complex assay
[5] = target: T2, Voltage-gated N-type calcium channel alpha-1B subunit/Amyloid beta A4 precursor protein-binding family A member 1; format: protein assay; remark: listed apart in the source
[6] = target: Paired box protein Pax-8 (Homo sapiens, UniProt Q06710); experiment: inhibitors of PAX8-driven TPO luciferase reporter, dose response, RMG-I cells, cherry-pick (AID 687027); format: functional, cell-based;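 further: luciferase reporter driven by Pax8 target thyroperoxidase promoter measured by SteadyGlo luminescence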
Sequence of Paired box protein Pax-8 (Q06710 whole entry): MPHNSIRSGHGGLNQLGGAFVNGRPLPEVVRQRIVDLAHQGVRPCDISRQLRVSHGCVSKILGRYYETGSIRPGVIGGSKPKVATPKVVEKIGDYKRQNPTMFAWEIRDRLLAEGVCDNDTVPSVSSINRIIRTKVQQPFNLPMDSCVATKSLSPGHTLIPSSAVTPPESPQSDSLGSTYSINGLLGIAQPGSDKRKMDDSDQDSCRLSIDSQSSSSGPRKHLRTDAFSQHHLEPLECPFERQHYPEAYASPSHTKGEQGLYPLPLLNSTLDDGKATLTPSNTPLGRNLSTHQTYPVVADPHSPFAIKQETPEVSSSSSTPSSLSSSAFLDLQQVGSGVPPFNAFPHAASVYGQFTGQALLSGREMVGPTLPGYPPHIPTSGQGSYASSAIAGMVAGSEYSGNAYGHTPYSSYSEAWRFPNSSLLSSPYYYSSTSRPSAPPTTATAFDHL

[7] = target: T3, Caspase-3 (Homo sapiens, UniProt P42574); experiment: procaspase-3 activators, dose response, biochemical, absorbance (AID 489014)
T3 sequence (P42574 whole entry): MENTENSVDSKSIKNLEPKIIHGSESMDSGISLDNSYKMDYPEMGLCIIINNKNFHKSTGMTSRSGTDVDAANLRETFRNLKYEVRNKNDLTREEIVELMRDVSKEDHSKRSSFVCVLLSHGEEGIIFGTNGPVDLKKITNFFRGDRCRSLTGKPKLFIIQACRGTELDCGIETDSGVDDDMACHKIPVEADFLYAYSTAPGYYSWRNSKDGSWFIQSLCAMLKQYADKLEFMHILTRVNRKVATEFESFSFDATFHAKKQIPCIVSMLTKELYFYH

[8] = target: Caspase-7 (Homo sapiens, UniProt P55210); experiment: procaspase-7 activators, dose response, counter-screen for procaspase-3 activator project, biochemical, absorbance (AID 489013)
[9] = target: G-protein coupled receptor 35 (Homo sapiens, UniProt Q9HC97); experiment: GPR35 antagonists blocking zaprinast-driven arrestin recruitment, primary screen, imaging, U2OS, beta-arrestin-GFP, zaprinast agonist (AID 2058); format: functional;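 further: antagonist potency meaning inhibition of agonist-induced arrestin redistribution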
Sequence of G-protein coupled receptor 35 (Q9HC97 whole entry): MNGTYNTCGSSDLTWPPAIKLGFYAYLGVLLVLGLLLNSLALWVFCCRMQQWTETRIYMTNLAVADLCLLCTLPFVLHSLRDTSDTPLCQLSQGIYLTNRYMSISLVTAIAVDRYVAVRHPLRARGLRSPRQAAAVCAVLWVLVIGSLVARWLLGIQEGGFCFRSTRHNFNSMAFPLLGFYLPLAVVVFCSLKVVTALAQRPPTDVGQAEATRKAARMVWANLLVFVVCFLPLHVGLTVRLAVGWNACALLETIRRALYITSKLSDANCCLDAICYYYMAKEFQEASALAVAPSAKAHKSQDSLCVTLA

[10] = target: E3 ubiquitin-protein ligase Mdm2/Protein Mdm4 (Homo sapiens, UniProt O15151+Q00987); experiment: Mdm2-MdmX interaction inhibitors, dose response, luminescence detection (AID 504593); format: functional
[11] = target: T4, Microphthalmia-associated transcription factor (Homo sapiens, UniProt O75030); experiment: TRPM1 promoter luciferase signal decrease, dose response, MITF inhibitor project, cell-based, SK-MEL-5, cherry-picked, set 3 (AID 493073); format: functional
T4 sequence (O75030 whole entry): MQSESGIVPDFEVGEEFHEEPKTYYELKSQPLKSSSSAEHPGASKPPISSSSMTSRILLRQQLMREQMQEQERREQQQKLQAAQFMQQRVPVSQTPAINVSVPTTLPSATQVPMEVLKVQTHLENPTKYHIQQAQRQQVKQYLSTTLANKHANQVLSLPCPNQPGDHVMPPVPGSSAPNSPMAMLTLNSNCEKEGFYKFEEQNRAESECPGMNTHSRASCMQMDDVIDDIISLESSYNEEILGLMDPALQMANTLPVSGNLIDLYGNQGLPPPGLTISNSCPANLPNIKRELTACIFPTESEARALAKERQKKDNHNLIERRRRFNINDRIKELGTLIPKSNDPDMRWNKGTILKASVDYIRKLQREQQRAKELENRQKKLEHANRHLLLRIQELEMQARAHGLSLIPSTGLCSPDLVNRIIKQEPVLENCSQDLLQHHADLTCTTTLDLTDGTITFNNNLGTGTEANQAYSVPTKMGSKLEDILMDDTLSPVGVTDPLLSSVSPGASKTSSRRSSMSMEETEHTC

[12] = system: A-375; experiment: A375 melanoma cell viability reduction, dose response, counter-screen for MITF modulator project, cherry-pick samples, set 2 (AID 540335); format: functional, cell-based; settings: Homo sapiens
[13] = target: Troponin, cardiac muscle (Homo sapiens, UniProt P19429+P45379+P63316); experiment: inhibitors of cardiac thin filament calcium sensitivity, dose response, biochemical, fluorescence, cardiac regulated thin filaments, triplicate IC50 (AID 504742); format: protein-complex assay
[14] = target: T5, Histone-lysine N-methyltransferase NSD2 (Homo sapiens, UniProt O96028); format: biochemical
T5 sequence (O96028 whole entry): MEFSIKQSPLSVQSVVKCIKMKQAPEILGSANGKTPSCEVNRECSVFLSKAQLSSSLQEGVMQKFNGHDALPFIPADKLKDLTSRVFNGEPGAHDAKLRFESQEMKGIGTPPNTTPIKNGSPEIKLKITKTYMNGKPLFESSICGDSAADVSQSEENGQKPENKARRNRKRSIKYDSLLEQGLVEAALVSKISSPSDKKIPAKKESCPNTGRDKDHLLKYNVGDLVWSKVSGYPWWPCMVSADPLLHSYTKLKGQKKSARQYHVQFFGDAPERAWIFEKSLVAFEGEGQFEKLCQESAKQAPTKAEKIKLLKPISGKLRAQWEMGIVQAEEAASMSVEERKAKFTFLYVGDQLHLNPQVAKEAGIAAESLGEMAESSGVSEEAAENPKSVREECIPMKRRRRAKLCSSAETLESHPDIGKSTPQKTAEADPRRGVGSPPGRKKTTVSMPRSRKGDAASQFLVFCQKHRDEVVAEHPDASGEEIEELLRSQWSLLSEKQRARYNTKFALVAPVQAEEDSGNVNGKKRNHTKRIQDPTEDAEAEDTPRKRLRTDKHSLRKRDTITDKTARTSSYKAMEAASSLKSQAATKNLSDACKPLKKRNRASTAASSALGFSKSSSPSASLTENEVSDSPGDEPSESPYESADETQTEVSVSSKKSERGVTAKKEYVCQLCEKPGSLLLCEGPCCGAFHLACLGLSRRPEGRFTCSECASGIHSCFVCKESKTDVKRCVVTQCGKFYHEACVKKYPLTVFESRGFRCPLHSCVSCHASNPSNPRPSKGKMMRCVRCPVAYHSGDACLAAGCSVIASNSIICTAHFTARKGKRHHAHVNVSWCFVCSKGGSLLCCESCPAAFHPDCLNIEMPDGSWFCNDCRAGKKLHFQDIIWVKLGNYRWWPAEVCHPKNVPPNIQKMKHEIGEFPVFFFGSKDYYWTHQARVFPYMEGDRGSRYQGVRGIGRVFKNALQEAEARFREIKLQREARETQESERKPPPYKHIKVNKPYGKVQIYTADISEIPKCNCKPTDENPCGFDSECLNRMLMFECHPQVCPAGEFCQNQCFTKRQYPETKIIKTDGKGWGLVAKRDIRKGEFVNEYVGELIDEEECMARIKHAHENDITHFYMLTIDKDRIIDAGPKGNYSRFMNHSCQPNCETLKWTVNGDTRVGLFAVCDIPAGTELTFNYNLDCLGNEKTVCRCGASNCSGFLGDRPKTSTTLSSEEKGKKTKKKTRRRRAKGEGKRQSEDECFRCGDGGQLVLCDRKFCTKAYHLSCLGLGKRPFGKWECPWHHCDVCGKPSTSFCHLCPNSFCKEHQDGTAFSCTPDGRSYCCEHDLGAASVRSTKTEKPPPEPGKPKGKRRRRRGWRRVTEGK

IC50 [1]: > 49.8 µM (not active)
IC50 [2]: 9.01 µM (active)
IC50 [3]: 28.1 µM (active)
IC50 [4]: 32.8 µM (active)
IC50 [5]: > 50 µM (inactive)
AC50 [6]: 67.6 µM (active)
Structure (SMILES): COc1ccc(-c2nc3c(c(SCC(=O)Nc4cccc(O)c4)n2)Cc2c(CO)cnc(C)c2O3)cc1

EC50 [7]: > 85.3 µM (inactive)
EC50 [8]: > 85.3 µM (inactive)
Structure (SMILES): Cc1ccc(C2Nc3ccc4ccccc4c3C3=C2C(=O)CC(C)(C)C3)o1 (centres undefined)

Structure (SMILES): CCN(CC)S(=O)(=O)c1ccc(NC(=O)c2cccnc2Cl)c(NC(=O)c2cccnc2Cl)c1
IC50 [9]: 8.8 µM (active)
IC50 [10]: 4.18 µM (active)
AC50 [11]: 7.02 µM (active)
AC50 [12]: 23.2 µM (active)

IC50 [13]: 12.7 µM (inactive)
AC50 [14]: > 20 µM (inactive)
Structure (SMILES): CCOc1ccc2nc3cc(N=Nc4ccc(N)nc4N)ccc3c(N)c2c1
